Source: US20260026505A1, “HERBICIDAL COMPOSITIONS” (SYNGENTA CROP PROTECTION AG, priority 2022, published 2026)
Several values for one entry are separate records, joined by “and”; a condition that tells them apart may be missing. Equal entries are not always repeated.

Legend:
Assay type in all cases: in vivo
Details in all cases: after 13 days
[1] = system: Ipomoea hederacea (IPOHE); assay: Glasshouse herbicide test, sprayed 1 day after sowing, visual percentage phytotoxicity, Colby synergy
Procedure: (§1) Seeds of Amaranthus retroflexus (AMARE), Echinochloa crus-galli (ECHCG), Digitaria sanguinalis (DIGSA), Lolium perenne (LOLPE), Alopecurus myosuroides (ALOMY), Chenopodium album (CHEAL), Setaria faberi(SETFA), Abutilon theophrasti(ABUTH), Setaria viridis (SETVI) and Ipomoea hederacea (IPOHE) were sown in standard sterilised soil in pots. After cultivation for 1 day under controlled conditions in a glasshouse (at 24/16° C., day/night; 14 hours light; 65% humidity), the plants were sprayed at 500 l/Ha with an aqueous spray solution derived from the formulation of the technical active ingredients in a small amount of acetone and a solvent and emulsifier mixture referred to as IF50 (11.12% Emulsogen EL360 TM+44.44% N-methylpyrrolidone+44.44% Dowanol DPM glycol ether), to create a 50 g/l solution which was then diluted using 0.2% Genapol X080 (CAS Number: 9043-30-5) as diluent to give the desired final dose of test compound. Where active ingredients were applied as mixtures, aqueous spray solutions were prepared as above, containing both active ingredients. The test plants were then grown under controlled conditions in a glasshouse (at 24/16° C., day/night; 14 hours light; 65% humidity) and watered twice daily. After 13 days, the test was evaluated visually for percentage phytotoxicity to the plants (where 100=total damage to plant; 0=no damage to plant) when compared to control untreated plants. Two to four replicates were applied for each treatment in a randomised block test design.
(§2) 22., E=X+Y−(X*Y/100), where • X=average percent phytotoxicity of herbicide A when applied at a certain rate • Y=average percent phytotoxicity using herbicide B when applied at a certain rate • E=the expected effect of the mixture of herbicides A and B as calculated from the Colby formula.

[2] = system: Echinochloa crus-galli (ECHCG); assay: as above
Procedure: as §1, §2

[3] = system: Abutilon theophrasti (ABUTH); assay: as above
Procedure: as §1, §2

[4] = system: Alopecurus myosuroides (ALOMY); assay: as above
Procedure: as §1, §2

Lolium perenne (LOLPE) = assay: as above
Procedure: as §1, §2

Setaria viridis (SETVI) = assay: as above
Procedure: as §1, §2

[5] = system: Chenopodium album (CHEAL); assay: as above
Procedure: as §1, §2

[6] = system: Amaranthus retroflexus (AMARE); assay: as above
Procedure: as §1, §2

[7] = system: Digitaria sanguinalis (DIGSA); assay: as above
Procedure: as §1, §2

Setaria faberi (SETFA) = assay: as above
Procedure: as §1, §2

[8] = Glasshouse herbicide test, first A + B-20 table, weed species not given
Procedure: as §1, §2

CC1(C)CON(Cc2ccc(Cl)cc2Br)C1=O [A]
Observed (percentage phytotoxicity) ([1]; 7.81 g/ha): 1% and 0% | Observed (percentage phytotoxicity) ([1]; 15.63 g/ha): 0% and 5% | Observed (percentage phytotoxicity) ([1]; 31.25 g/ha): 1% | Observed (percentage phytotoxicity) ([1]; 62.5 g/ha): 1% | Observed (percentage phytotoxicity) ([2]; 7.81 g/ha): 25% and 34% | Observed (percentage phytotoxicity) ([2]; 15.63 g/ha): 48% | Observed (percentage phytotoxicity) ([3]; 7.81 g/ha): 6% | Observed (percentage phytotoxicity) ([3]; 31.25 g/ha): 5% and 11% | Observed (percentage phytotoxicity) ([3]; 125 g/ha): 31% | Observed (percentage phytotoxicity) ([4]; 7.81 g/ha): 5% | Observed (percentage phytotoxicity) ([4]; 15.63 g/ha): 10% | Observed (percentage phytotoxicity) ([4]; 31.25 g/ha): 21% and 16% | Observed (percentage phytotoxicity) ([4]; 62.5 g/ha): 40% | Observed (percentage phytotoxicity) ([4]; 125 g/ha): 68% | Observed (percentage phytotoxicity) (Lolium perenne (LOLPE); 3.91 g/ha): 8% | Observed (percentage phytotoxicity) (Lolium perenne (LOLPE); 7.81 g/ha): 13% | Observed (percentage phytotoxicity) (Lolium perenne (LOLPE); 15.63 g/ha): 13% | Observed (percentage phytotoxicity) (Lolium perenne (LOLPE); 31.25 g/ha): 35% and 18% | Observed (percentage phytotoxicity) (Lolium perenne (LOLPE); 62.5 g/ha): 43% and 30% | Observed (percentage phytotoxicity) (Setaria viridis (SETVI); 7.81 g/ha): 10% | Observed (percentage phytotoxicity) (Setaria viridis (SETVI); 15.63 g/ha): 26% | Observed (percentage phytotoxicity) ([5]; 15.63 g/ha): 21% | Observed (percentage phytotoxicity) ([6]; 3.91 g/ha): 11% | Observed (percentage phytotoxicity) ([6]; 31.25 g/ha): 21% | Observed (percentage phytotoxicity) ([6]; 62.5 g/ha): 31% and 50% | Observed (percentage phytotoxicity) ([6]; 125 g/ha): 74% | Observed (percentage phytotoxicity) ([7]; 3.91 g/ha): 4% | Observed (percentage phytotoxicity) ([7]; 7.81 g/ha): 3% | Observed (percentage phytotoxicity) ([7]; 15.63 g/ha): 5% | Observed (percentage phytotoxicity) ([7]; 31.25 g/ha): 11% | Observed (percentage phytotoxicity) ([7]; 62.5 g/ha): 68% | Observed (percentage phytotoxicity) (Setaria faberi (SETFA); 7.81 g/ha): 13% | Observed (percentage phytotoxicity) (Setaria faberi (SETFA); 15.63 g/ha): 11% | Observed (percentage phytotoxicity) (Setaria faberi (SETFA); 31.25 g/ha): 41% | Observed (percentage phytotoxicity) ([8]; 15.63 g/ha): 10% | Observed (percentage phytotoxicity) ([8]; 31.25 g/ha): 21%

O=C(Nc1ccc(F)cc1F)c1cccnc1Oc1cccc(C(F)(F)F)c1 [Compound B-20]
Observed (percentage phytotoxicity) ([1]; 31.25 g/ha): 5% | Observed (percentage phytotoxicity) ([2]; 15.63 g/ha): 10% | Observed (percentage phytotoxicity) ([3]; 3.91 g/ha): 8% | Observed (percentage phytotoxicity) ([3]; 15.63 g/ha): 20% | Observed (percentage phytotoxicity) ([3]; 31.25 g/ha): 18% | Observed (percentage phytotoxicity) ([5]; 15.63 g/ha): 8% | Observed (percentage phytotoxicity) ([7]; 31.25 g/ha): 68% | Observed (percentage phytotoxicity) ([8]; 15.63 g/ha): 23% | Observed (percentage phytotoxicity) ([8]; 31.25 g/ha): 23%

CCCN(CCC)C(=O)SCc1ccccc1 [Compound B-7]
Observed (percentage phytotoxicity) ([1]; 31.25 g/ha): 10% | Observed (percentage phytotoxicity) ([1]; 62.5 g/ha): 5% | Observed (percentage phytotoxicity) ([1]; 125 g/ha): 8% | Observed (percentage phytotoxicity) ([1]; 250 g/ha): 20% | Observed (percentage phytotoxicity) ([3]; 62.5 g/ha): 8% | Observed (percentage phytotoxicity) ([3]; 125 g/ha): 15% | Observed (percentage phytotoxicity) ([4]; 125 g/ha): 15% | Observed (percentage phytotoxicity) ([4]; 250 g/ha): 10% | Observed (percentage phytotoxicity) (Lolium perenne (LOLPE); 62.5 g/ha): 10% | Observed (percentage phytotoxicity) (Lolium perenne (LOLPE); 125 g/ha): 8% | Observed (percentage phytotoxicity) (Lolium perenne (LOLPE); 250 g/ha): 10% | Observed (percentage phytotoxicity) (Setaria viridis (SETVI); 31.25 g/ha): 5% | Observed (percentage phytotoxicity) (Setaria viridis (SETVI); 125 g/ha): 8% | Observed (percentage phytotoxicity) ([5]; 62.5 g/ha): 9% | Observed (percentage phytotoxicity) ([5]; 125 g/ha): 15% | Observed (percentage phytotoxicity) ([5]; 250 g/ha): 15% | Observed (percentage phytotoxicity) ([6]; 62.5 g/ha): 48% | Observed (percentage phytotoxicity) ([6]; 250 g/ha): 45% | Observed (percentage phytotoxicity) ([7]; 62.5 g/ha): 13% | Observed (percentage phytotoxicity) ([7]; 125 g/ha): 3%

CC(C)N(C(=O)COc1nnc(C(F)(F)F)s1)c1ccc(F)cc1 [Compound B-16]
Observed (percentage phytotoxicity) ([1]; 3.91 g/ha): 5% | Observed (percentage phytotoxicity) ([1]; 7.81 g/ha): 8% | Observed (percentage phytotoxicity) ([3]; 15.63 g/ha): 23% | Observed (percentage phytotoxicity) (Lolium perenne (LOLPE); 3.91 g/ha): 45% | Observed (percentage phytotoxicity) ([5]; 15.63 g/ha): 48% | Observed (percentage phytotoxicity) ([6]; 31.25 g/ha): 70%

Cn1nc(C(F)(F)F)c(CS(=O)(=O)C2=NOC(C)(C)C2)c1OC(F)F [Compound B-9]
Observed (percentage phytotoxicity) ([1]; 7.81 g/ha): 53% | Observed (percentage phytotoxicity) ([1]; 15.63 g/ha): 73% | Observed (percentage phytotoxicity) ([3]; 3.91 g/ha): 40% | Observed (percentage phytotoxicity) ([3]; 7.81 g/ha): 55% | Observed (percentage phytotoxicity) (Lolium perenne (LOLPE); 1.95 g/ha): 14% | Observed (percentage phytotoxicity) (Lolium perenne (LOLPE); 3.91 g/ha): 40% | Observed (percentage phytotoxicity) (Lolium perenne (LOLPE); 7.81 g/ha): 44% | Observed (percentage phytotoxicity) (Lolium perenne (LOLPE); 15.63 g/ha): 48% | Observed (percentage phytotoxicity) (Lolium perenne (LOLPE); 31.25 g/ha): 66% | Observed (percentage phytotoxicity) ([6]; 1.95 g/ha): 40% | Observed (percentage phytotoxicity) ([7]; 1.95 g/ha): 13% | Observed (percentage phytotoxicity) ([7]; 3.91 g/ha): 43% | Observed (percentage phytotoxicity) ([7]; 7.81 g/ha): 65%

CS(=O)(=O)c1ccc(C(=O)C2C(=O)CCCC2=O)c([N+](=O)[O-])c1 [Compound B-4]
Observed (percentage phytotoxicity) ([1]; 3.91 g/ha): 10% | Observed (percentage phytotoxicity) ([2]; 3.91 g/ha): 5% | Observed (percentage phytotoxicity) ([3]; 3.91 g/ha): 78% | Observed (percentage phytotoxicity) ([4]; 3.91 g/ha): 0% | Observed (percentage phytotoxicity) ([4]; 7.81 g/ha): 3% | Observed (percentage phytotoxicity) ([6]; 3.91 g/ha): 53% | Observed (percentage phytotoxicity) ([6]; 7.81 g/ha): 85% | Observed (percentage phytotoxicity) ([6]; 15.63 g/ha): 85% | Observed (percentage phytotoxicity) ([6]; 31.25 g/ha): 85% | Observed (percentage phytotoxicity) ([7]; 3.91 g/ha): 70% | Observed (percentage phytotoxicity) (Setaria faberi (SETFA); 3.91 g/ha): 5% | Observed (percentage phytotoxicity) (Setaria faberi (SETFA); 7.81 g/ha): 3% | Observed (percentage phytotoxicity) (Setaria faberi (SETFA); 15.63 g/ha): 8%
